This note sets out measurements from US20040192771A1, “Ether compounds and compositions for cholesterol management and related uses” (priority 2001, published 2004).

The structures appear in SMILES notation. Like-named read-outs stand apart in the source and are kept apart here.

In one assay the test system is obese female Zucker rats. Description: Oral daily treatment of obese female Zucker rats for fourteen days; serum lipids and glycemic control indicators. The class given is in vivo. The following applies: Rattus norvegicus, percent change from study prebleed; for change in vivo at 100 mg/kg/day: 100 mg/kg/day oral; for change in vivo at 30 mg/kg/day: 30 mg/kg/day oral. The protocol: In a number of different experiments, illustrative compounds of the invention are administered daily at a dose of up to 100 mg/kg to chow fed obese female Zucker rats for fourteen days in the morning by oral gavage in 1.5% carboxymethylcellulose/0.2% Tween 20 or 20% ethanol/80% polyethylene glycol (dosing vehicles). Animals are weighed daily. Animals are allowed free access to rodent chow and water throughout the study except on days of blood sampling where food is restricted for six hours prior to blood sampling. Blood glucose is determined after the 6 hour fast in the afternoon without anesthesia from a tail vein. Serum is also prepared from pretreatment blood samples subsequently obtained from the orbital venous plexus (with O2/CO2 anesthesia) and following the fourteenth dose at sacrifice from the heart following O2/CO2 anesthesia. Serums are assayed for lipoprotein cholesterol profiles, triglycerides, total cholesterol, Non HDL cholesterol, HDL cholesterol, the ratio of HDL cholesterol to that of Non HDL cholesterol, insulin, non esterified fatty acids, and beta hydroxy butyric acid. The percent body weight gain and the ratio of liver to body weight is also determined. These are shown as absolute values or as a percent change of the pretreatment values in Table C. [drawing 479] [drawing 480]

Another assay relates to primary rat hepatocytes. The assay is described as follows: Inhibition of lipid synthesis ([1-14C]-acetate incorporation) in primary cultures of rat hepatocytes. In kind it is cell-based. The note with it: Hepatocyte, total lipid synthesis, 4 hours incubation. How it is done:
Compounds were tested for inhibition of lipid synthesis in primary cultures of rat hepatocytes. Male Sprague-Dawley rats were anesthetized with intraperitoneal injection of sodium pentobarbital (80 mg/kg). Rat hepatocytes were isolated essentially as described by the method of Seglen (Seglen, P. O. Hepatocyte suspensions and cultures as tools in experimental carcinogenesis. J. Toxicol. Environ. Health 1979, 5, 551-560). Hepatocytes were suspended in Dulbecco's Modified Eagles Medium containing 25 mM D-glucose, 14 mM HEPES, 5 mM L-glutamine, 5 mM leucine, 5 mM alanine, 10 mM lactate, 1 mM pyruvate, 0.2% bovine serum albumin, 17.4 mM non-essential amino acids, 20% fetal bovine serum, 100 nM insulin and 20 μg/mL gentamycin) and plated at a density of 1.5×10^5 cells/cm^2 on collagen-coated 96-well plates. Four hours after plating, media was replaced with the same media without serum. Cells were grown overnight to allow formation of monolayer cultures. Lipid synthesis incubation conditions were initially assessed to ensure the linearity of [1-^14C]-acetate incorporation into hepatocyte lipids for up to 4 hours. Hepatocyte lipid synthesis inhibitory activity was assessed during incubations in the presence of 0.25 μCi [1-^14C]-acetate/well (final radiospecific activity in assay is 1 Ci/mol) and 0, 1, 3, 10, 30, 100 or 300 μM of compounds for 4 hours. At the end of the 4-hour incubation period, medium was discarded and cells were washed twice with ice-cold phosphate buffered saline and stored frozen prior to analysis. To determine total lipid synthesis, 170 μl of MicroScint-E® and 50 μl water was added to each well to extract and partition the lipid soluble products to the upper organic phase containing the scintillant. Lipid radioactivity was assessed by scintillation spectroscopy in a Packard TopCount NXT.

Setting [1] is: 168 h, week 1, read-out: Glucose.
The mark [2] stands for this setting: 168 h, week 1, read-out: Insulin.
Where [3] appears, read: 168 h, week 1, read-out: Non-HDL-C.
Where [4] appears, read: 336 h, week 2, read-out: Glucose.
The mark [5] stands for this setting: 336 h, week 2, read-out: Insulin.
Where [6] appears, read: 336 h, week 2, read-out: Non-HDL-C.

The term IC50 denotes the concentration at which inhibition is half-maximal. For `CC(CO)(CCCOCCCC(C)(CO)c1ccccc1)c1ccccc1` (centres unmarked) [Compound 110, 5-(5-Hydroxy-4-methyl-4-phenylpentyloxy)-2-methyl-2-phenylpentan-1-ol], the change in vivo at 100 mg/kg/day is 12% with obese female Zucker rats (setting [1]); 7% with obese female Zucker rats (168 h, week 1, read-out: HDL-C); -2% in the assay with obese female Zucker rats (setting [2]); -32% in the assay on obese female Zucker rats (setting [3]); -4% in the assay on obese female Zucker rats (168 h, week 1, read-out: TC); -27% in the assay with obese female Zucker rats (168 h, week 1, read-out: TG). Further, the change in vivo at 100 mg/kg/day was 10% in the assay on obese female Zucker rats (setting [4]); 5% in the assay on obese female Zucker rats (336 h, week 2, read-out: HDL-C); -6% in the assay with obese female Zucker rats (setting [5]); -26% in the assay on obese female Zucker rats (setting [6]); -4% in the assay on obese female Zucker rats (336 h, week 2, read-out: TC); -18% with obese female Zucker rats (336 h, week 2, read-out: TG). For the same compound, in the assay with primary rat hepatocytes, half-maximal inhibition (IC50) required 143 µM.

Take `CC(C)(CO)CCCC1CCCC(CCCC(C)(C)CO)O1` (centres unmarked) [Compound 141, 5-[6-(5-Hydroxy-4,4-dimethylpentyl)-tetrahydropyran-2-yl]-2,2-dimethylpentan-1-ol]: the change in vivo at 100 mg/kg/day is -14% in the assay on obese female Zucker rats (setting [1]); 75% in the assay on obese female Zucker rats (168 h, week 1, read-out: HDL-C); -2% with obese female Zucker rats (setting [2]); -70% in the assay with obese female Zucker rats (setting [3]); 28% with obese female Zucker rats (168 h, week 1, read-out: TC); -74% with obese female Zucker rats (168 h, week 1, read-out: TG). Further, the change in vivo at 100 mg/kg/day was -9% in the assay with obese female Zucker rats (setting [4]); 127% in the assay on obese female Zucker rats (336 h, week 2, read-out: HDL-C); 10% in the assay on obese female Zucker rats (setting [5]); -31% in the assay with obese female Zucker rats (setting [6]); 70% with obese female Zucker rats (336 h, week 2, read-out: TC); -47% in the assay with obese female Zucker rats (336 h, week 2, read-out: TG). In the assay with primary rat hepatocytes, this compound came in with a 50% inhibitory concentration (IC50) of 39 µM.

Turning to `CC(C)(CCCCOCCCCC(C)(C)CCC(=O)O)CCC(=O)O` [Compound 145, 4,4,14,14-Tetramethyl-9-oxaheptadecane-1,17-dioic acid], the change in vivo at 100 mg/kg/day with obese female Zucker rats (setting [1]) is -1%; in the assay with obese female Zucker rats (168 h, week 1, read-out: HDL-C) it was 13%; in the assay on obese female Zucker rats (setting [2]), -34%; in the assay with obese female Zucker rats (setting [3]) it was -50%; in the assay with obese female Zucker rats (168 h, week 1, read-out: TC) it was -3%; in the assay with obese female Zucker rats (168 h, week 1, read-out: TG), -80%. Further, the change in vivo at 100 mg/kg/day is 16% in the assay with obese female Zucker rats (setting [4]); 39% with obese female Zucker rats (336 h, week 2, read-out: HDL-C); -45% with obese female Zucker rats (setting [5]); -30% with obese female Zucker rats (setting [6]); 21% in the assay on obese female Zucker rats (336 h, week 2, read-out: TC); -73% with obese female Zucker rats (336 h, week 2, read-out: TG). This compound also displayed a half-maximal inhibitory concentration (IC50) in the assay on primary rat hepatocytes of 22 µM.

Consider `CC(C)(CCCCOCCCCC(C)(C)COC1CCCCO1)COC1CCCCO1` (centres unmarked) [Compound 122, 2-{6-[5,5-Dimethyl-6-(tetrahydropyran-2-yloxy)-hexyloxy]-2,2-dimethylhexyloxy}-tetrahydropyran], for which the change in vivo at 100 mg/kg/day is -7% with obese female Zucker rats (setting [1]); 43% with obese female Zucker rats (168 h, week 1, read-out: HDL-C); -18% with obese female Zucker rats (setting [2]); 46% in the assay with obese female Zucker rats (setting [3]); 42% in the assay on obese female Zucker rats (168 h, week 1, read-out: TC); -1% in the assay on obese female Zucker rats (168 h, week 1, read-out: TG). For the same compound, the change in vivo at 100 mg/kg/day with obese female Zucker rats (setting [4]) was 9%; with obese female Zucker rats (336 h, week 2, read-out: HDL-C) it was 79%; in the assay on obese female Zucker rats (setting [5]), -20%; in the assay on obese female Zucker rats (setting [6]), 92%; in the assay on obese female Zucker rats (336 h, week 2, read-out: TC), 79%; with obese female Zucker rats (336 h, week 2, read-out: TG), 22%. Also, in the assay on primary rat hepatocytes, half-maximal inhibition (IC50) required 20 µM.

Take `CC(C)(CO)CCCCOCCCCC(C)(C)CO` [Compound 128, 6-(6-Hydroxy-5,5-dimethylhexyloxy)-2,2dimethylhexan-1-ol]: the change in vivo at 30 mg/kg/day in the assay with obese female Zucker rats (setting [1]) was 2%; in the assay with obese female Zucker rats (168 h, week 1, read-out: HDL-C), 174%; in the assay with obese female Zucker rats (setting [2]), 48%; in the assay with obese female Zucker rats (setting [3]), -14%; in the assay with obese female Zucker rats (168 h, week 1, read-out: TC), 131%; in the assay on obese female Zucker rats (168 h, week 1, read-out: TG), -52%. In addition, the change in vivo at 30 mg/kg/day in the assay with obese female Zucker rats (setting [4]) was 44%; in the assay with obese female Zucker rats (336 h, week 2, read-out: HDL-C), 349%; in the assay on obese female Zucker rats (setting [5]), 48%; in the assay with obese female Zucker rats (setting [6]) it was 59%; in the assay on obese female Zucker rats (336 h, week 2, read-out: TC), 224%; in the assay on obese female Zucker rats (336 h, week 2, read-out: TG), -39%. Also, the 50% inhibitory concentration (IC50) in the assay on primary rat hepatocytes stood at 10 µM.

For `CC(C)(CO)CCCCOCCCCC(C)(CO)c1ccccc1` (centres unmarked) [Compound 129, 6-(6-Hydroxy-5-methyl-5-phenylhexyloxy)-2,2-dimethyl-hexan-1-ol], the change in vivo at 100 mg/kg/day in the assay with obese female Zucker rats (setting [1]) is 14%; in the assay on obese female Zucker rats (168 h, week 1, read-out: HDL-C), 26%; in the assay with obese female Zucker rats (setting [2]), 2%; in the assay with obese female Zucker rats (setting [3]), -55%; with obese female Zucker rats (168 h, week 1, read-out: TC) it was -6%; with obese female Zucker rats (168 h, week 1, read-out: TG) it was -61%. The change in vivo at 100 mg/kg/day was 4% with obese female Zucker rats (setting [4]); 52% in the assay on obese female Zucker rats (336 h, week 2, read-out: HDL-C); 6% in the assay with obese female Zucker rats (setting [5]); -13% in the assay with obese female Zucker rats (setting [6]); 26% with obese female Zucker rats (336 h, week 2, read-out: TC); -45% in the assay on obese female Zucker rats (336 h, week 2, read-out: TG). For the same compound, in the assay with primary rat hepatocytes, half-maximal inhibition (IC50) was put at 4.7 µM.

As for `CC(CO)(CCCCOCCCC(C)(CO)c1ccccc1)c1ccccc1` (centres unmarked) [Compound 127, 6-(5-Hydroxy-4-methyl-4-phenylpentyloxy)-2-methyl-2-phenylhexan-1-ol], the change in vivo at 30 mg/kg/day was 5% with obese female Zucker rats (setting [1]); -2% in the assay on obese female Zucker rats (168 h, week 1, read-out: HDL-C); 3% in the assay on obese female Zucker rats (setting [2]); 3% with obese female Zucker rats (168 h, week 1, read-out: TC); 0% in the assay on obese female Zucker rats (168 h, week 1, read-out: TG); -3% with obese female Zucker rats (setting [4]). In addition, the change in vivo at 30 mg/kg/day was -20% in the assay with obese female Zucker rats (336 h, week 2, read-out: HDL-C); 0% in the assay with obese female Zucker rats (setting [5]); 45% in the assay on obese female Zucker rats (setting [6]); 2% with obese female Zucker rats (336 h, week 2, read-out: TC); 21% in the assay with obese female Zucker rats (336 h, week 2, read-out: TG).

Regarding `CC(C)(CO)CCCOCCOCCCC(C)(C)CO` [Compound 149, 5-[2-(5-Hydroxy-4,4-dimethylpentyloxy)-ethoxy]-2,2-dimethylpentan-1-ol], the change in vivo at 30 mg/kg/day in the assay on obese female Zucker rats (setting [1]) is -20%; in the assay on obese female Zucker rats (168 h, week 1, read-out: HDL-C) it was 37%; in the assay with obese female Zucker rats (setting [2]), -40%; in the assay on obese female Zucker rats (setting [3]), -48%; in the assay with obese female Zucker rats (168 h, week 1, read-out: TC), -7%; with obese female Zucker rats (168 h, week 1, read-out: TG) it was -37%. Moreover, the change in vivo at 30 mg/kg/day in the assay on obese female Zucker rats (setting [4]) is -27%; in the assay with obese female Zucker rats (336 h, week 2, read-out: HDL-C), 17%; with obese female Zucker rats (setting [5]), -26%; with obese female Zucker rats (setting [6]), -27%; in the assay on obese female Zucker rats (336 h, week 2, read-out: TC) it was -7%; with obese female Zucker rats (336 h, week 2, read-out: TG), -30%.
